The results in this text go back to US11273166B2, “Methods and compositions for the treatment of obesity” (Monash University, priority 2017, dated 2022).

Residues, ends and D or L forms follow the SMILES beside them. *: point of attachment. Cbz = O=C(OCc1ccccc1)*

Common to all, as to type: in vivo, mouse
Series [1] relates to AgRP neurons (hM4Di DREADD). Put plainly: CNO in Agrp-Ires-Cre; Npy-hrGFP mice with rAAV-hM4Di-mCherry (DREADD) in the ARC. Conditions: CNO 1.5 mg/kg/day i.p., 14 days. From the text: FIG. 3. TCPTP deletion in AgRP neurons or AgRP neuronal inhibition promotes WAT browning and energy expenditure. a) Body weights, b) body composition, c) energy expenditure, d) daily food intake and e) BAT Ucp-1 gene expression in 18-week-old AgRP-TC and Ptpn2^fl/fl male mice. Inguinal WAT (ingWAT) was extracted from Ptpn2^fl/fl and AgRP-TC male mice and processed for f) histology (hematoxylin and eosin: H&E) and immunohistochemistry, g) quantitative PCR and h) immunoblotting. i) Ptpn2^fl/fl and AgRP-TC and Ptpn2^fl/fl male mice were subjected to ^18F-fluoro-2-deoxy-D-glucose (^18F-FDG) positron emission tomography (PET)-computed tomography (CT). Representative images and ingWAT ^18F-FDG standard uptake values (SUV) and normalised uptake per tissue volume are shown. Ptpn2^fl/fl and AgRP-TC male mice ingWAT depots were bilaterally sham-operated or denervated with 6-ODHA and j) weekly body weights recorded and k) energy expenditure measured. l) Ptpn2^fl/fl, AgRP-TC or AgRP-TC-IR male mice were fasted overnight and administered (intraperitoneal) insulin (0.85 mU/g, 15 min) and brains extracted for ARC p-AKT immunohistochemistry. m) Energy expenditure, n) body weights and o) ingWAT weights in 14-week-old Ptpn2^fl/fl, AgRP-TC or AgRP-TC-IR male mice. p-r) IngWAT and BAT were extracted from Ptpn2^fl/fl, AgRP-TC or AgRP-TC-IR male mice for gene expression analyses or histology/immunohistochemistry. s-t) 10-week-old Npy-hrGFP; Agrp-Ires-Cre mice were bilaterally injected with rAAV-hM4Di-mCherry into the ARC. […] Representative and quantified results (means±SEM) are shown for the indicated number of mice. * for significance between Ptpn2^fl/fl and AgRP-TC mice; # for significance between treated AgRP-TC or AgRP verses AgRP-TC-IR mice.
FIG. 10. […] Representative and quantified results (means±SEM) are shown for the indicated number of mice. […]

The subject of series [2] is diet-induced obese mice. The experiment in a line: ICV Claramine for 10 consecutive days in 12-week high fat fed mice. Conditions: ICV 1 and 10 μg/animal/day. The procedure: (§1) FIG. 23. CNS administration of PTP1B inhibitor (Claramine) dose dependently attenuates body weight, adiposity and food intake without regulating energy expenditure in diet-induced obese mice. […] Data were collected into 5 min time bins and are presented as percentage of total behavior. Crossover graphs indicating the point of transition from eating to resting and the dashed line represents the time bin in which groups spent an equivalent amount of time eating and resting and is represented as f) time of cross over.

Series [3] concerns 8-10-week C57BL/6 male mice. Put plainly: Intranasal RU486 or Claramine for 10 consecutive days in 8-10-week C57BL/6 male mice. The settings on record: RU486 1, 5, 10 or Claramine 1, 10 and 20 μg/animal/day.
In series [4] the test system is diet-induced obese mice. Put plainly: Behavioral satiety sequence after ICV Claramine in overnight fasted high fat fed mice. Conditions: ICV 1 and 10 μg/animal. On the procedure:
as §1

In a further series the test system is PTP1B levels. Put plainly: ICV MG132 in fasted (24 h) mice re-fed 4 h; MBH immunoblotting for PTP1B. Conditions: ICV 2 μl 50 μM, 4 h re-feeding.
The subject of a further series is TCPTP protein in the MBH. The experiment in a line: ICV MG132 in fasted (24 h) mice re-fed 4 h; MBH immunoblotting for TCPTP. Conditions: ICV 2 μl 50 μM, 4 h re-feeding. On the procedure:
The alterations in hypothalamic TCPTP in fed and fasted mice might be a specific response to nutritional signals. To explore this, experiments were performed to determined when the hypothalamic TCPTP levels returned to the pre-fasted state, when 24 h fasted mice were re-fed for 4 h (FIG. 1a). Hypothalamic TCPTP protein, as assessed by immunoblotting MBH homogenates (FIG. 1c), or Ptpn2 expression, as assessed by real time PCR (FIG. 1d), declined to pre-fasted levels in re-fed mice. The decline in TCPTP occurred throughout the ARC (FIG. 8c). The decline in TCPTP was accompanied by increased IR and AKT phosphorylation (FIG. 1e), consistent with the potential enhancement of insulin sensitivity. Since the half-life for TCPTP protein is roughly 16 h (Bukczynska et al., 2004), we reasoned that the decline in TCPTP might reflect increased degradation. The proteasome can influence hypothalamic protein abundance in response to feeding (Sasaki et al., 2010). To test its contribution to TCPTP degradation in re-fed mice, we administered fasted (24 h) mice the proteasome inhibitor MG132 intracerebroventricularly (ICV) and assessed the influence on TCPTP protein in the MBH after 4 h of re-feeding.
Background: Immunoblotting shows a protein as a band on a membrane.

The test system of series [5] is diet-induced obese mice. Put plainly: ICV RU486 for 10 consecutive days in 12-week high fat fed mice. Conditions: ICV 1 μg/animal. The procedure:
FIG. 16. […] 12 week high fat fed C57BL/6 male mice were mice were sham or bi-laterally denervated (6-ODHA) to prevent WAT browning and then administered the glucocorticoid antagonist RU486 intracerebroventricularly (ICV; 1 μg/animal), twice daily (9 am & […]) for 10 consecutive days. Effects on body weight and adiposity (EchoMRI and fad pad weight) were determined. WAT browning was assessed by gross morphology.
FIG. 17. A glucocorticoid antagonist promotes WAT browning and increases energy expenditure without any obvious adverse behavioral effects. […] Effects on energy expenditure (indirect calorimetry) and stereotypical behaviors were determined using the Promethion metabolic cage system.
FIG. 22. […] 12-week high fat fed C57BL/6 male mice received glucocorticoid antagonist (RU486: 0.1, 1 and 2 μg/animal/day, ICV) for 10 consecutive days and a) body weights, b) food intake, c) adiposity (EchoMRI and fad pad weight), d) energy expenditure were determined.
Insulin and glucose tolerance tests and blood glucose and plasma insulin were measured as described previously (Dodd et al., 2015 as above; Loh et al., 2009 Cell Metab 10, 260-272). Plasma corticosterone was measured by ELISA (Arbor Assays). […]
Effects on body weight and adiposity (EchoMRI and fat pad weight) were determined. […]
Effects on energy expenditure and stereotypical behaviours were determined using the Promethion metabolic cages system.

Series [6] relates to hypothalamic TCPTP (Ptpn2) expression. Put plainly: ICV ghrelin, UDP or dexamethasone (plus or minus RU486) in re-fed mice; hypothalamic TCPTP immunohistochemistry and Ptpn2 real time PCR. The settings on record: for TCPTP protein levels (immunohistochemistry): ICV twice over 4 h in fasted and re-fed (4 h) mice. On the technique in general: Quantitative PCR measures a nucleic acid by following its amplification.

In series [7] the test system is 20-week high fat fed C57BL/6 male mice. Put plainly: Intra-ARC infusion of TCPTP inhibitor in 20-week high fat fed mice switched to chow diet. Conditions: intra-ARC 0.5 nmol/day at 0.25 ul/h, mice placed on chow diet (9% fat). The procedure: FIG. 18. […] 2-weeks post AAV injection mice were placed on chow diet (9% fat) and weekly body weight was monitored. b) 20-week high fat fed (23% fat) C57BL/6 male mice were implanted with bilateral intraARC cannula connected to Alzet osmotic minipumps (Alzet, 1002) and infused with vehicle or TCPTP inhibitor (compound 8 as described herein, 0.5 nmol/day at a rate of 0.25 ul/h). Mice were placed on chow diet (9% fat) and daily body weight was monitored.
2-weeks post AAV injection mice were placed on chow diet (9% fat) and weekly body weight was monitored. b) 20-week high fat fed (23% fat) C57BL/6 male mice were implanted with bilateral intra-ARC cannula connected to Alzet osmotic minipumps (Alzet, 1002) and infused with vehicle or TCPTP inhibitor (compound 8, 0.5 nmol/day at a rate of 0.25 ul/h). Mice were placed on chow diet (9% fat) and daily body weight was monitored.

Series [8] concerns ARC PI3K/AKT signaling (p-AKT). The experiment in a line: Insulin-induced ARC p-AKT (Ser-473) immunohistochemistry in fed or fasted mice. The settings on record: insulin 0.85 mU/g i.p., 15 min.

With `C[N+]1([O-])CCN(C2=Nc3cc(Cl)ccc3Nc3ccccc32)CC1` [CNO, clozapine-N-oxide], in [1], the body weights entry is listed as “decreased” and the food intake result is listed as “decreased”. Also, the WAT browning entry in [1] (sham-operated vs 6-OHDA denervated inguinal fat pads) is reported as “marked WAT browning in the sham-operated, but not in the contralateral 6-OHDA denervated inguinal fat pads”.
With `CC(C)CCC[C@@H](C)[C@H]1CC[C@H]2[C@@H]3C[C@@H](NCCCNCCCCNCCCN)C4C[C@@H](O)CC[C@]4(C)[C@H]3CC[C@]12C` (stereo partly drawn) [Claramine, (3β3,6β3)-6-[[3-[[4-[(3-Aminopropyl)amino]butyl]amino]propyl]amino]-cholestan-3-ol], in the series with diet-induced obese mice [2], the “adiposity (EchoMRI and fad pad weight)” value is “dose dependent attenuation”; the body weights result is reported as “dose dependent attenuation”; the food intake entry is given as “dose dependent attenuation”. Further, in series [3], the adaptive thermogenesis entry is listed as “dose dependent effect”, the adiposity result is “dose dependent effect”, the body weight entry was “dose dependent effect” and the food intake result is recorded as “dose dependent effect”. The “adverse side effects as cause of reduced food intake” value in the series with diet-induced obese mice [4] is “not by adverse side effects such as sedation or nausea”. The behavioral satiety sequence result in the series on diet-induced obese mice [4] (overnight fasted, presented with food) was “dose dependent shift”.
For the molecule `CC(C)C[C@@H](C=O)NC(=O)[C@H](CC(C)C)NC(=O)[C@H](CC(C)C)NC(=O)OCc1ccccc1` [MG132] (Cbz-Leu-Leu-Leu-aldehyde), in the series on PTP1B levels, the PTP1B levels result is “without affecting”. In addition, the “feeding-induced degradation of TCPTP” value in the series with TCPTP protein in the MBH is “completely prevented”.
Take `CC#C[C@]1(O)CC[C@H]2[C@@H]3CCC4=CC(=O)CCC4=C3[C@@H](c3ccc(N(C)C)cc3)C[C@@]21C` [RU486, 17-beta-hydroxy-11-beta-(4-dimethyl-aminophenyl)-17-alpha(1-propynyl)-estra-4,9-dien-3-one]: the adverse behaviours entry in the series with diet-induced obese mice [5] is “not accompanied by adverse behaviours such as inactivity, hyperactivity or sedation”.
As to `O=c1ccn([C@@H]2O[C@H](COP(=O)(O)OP(=O)(O)O)[C@@H](O)[C@H]2O)c(=O)[nH]1` [UDP, uridine 5′-diphosphate], in [6], the “TCPTP protein levels (immunohistochemistry)” value was “Neither ghrelin nor UDP overtly altered”.
As for `CCc1ccc(C(=O)NCCCCC(NC(=O)C(Cc2ccc(C(F)(F)P(=O)(O)O)cc2)NC(=O)C(Cc2ccccc2)NC(=O)COC2CC(C)CCC2C(C)C)C(N)=O)cc1` (stereo not drawn) [compound 8], the “diet-induced weight loss (daily body weight)” value in [7] is recorded as “enhances diet-induced weight loss”.
ghrelin: in series [6], the “TCPTP protein levels (immunohistochemistry)” value was “Neither ghrelin nor UDP overtly altered”. The “increase in Ptpn2 message” value in series [6] (ICV twice over 4 h in re-fed mice, real time PCR) is about 3 fold.
For insulin: human insulin (SIGMA), the “ARC p-AKT in response to insulin” value in series [8] (24 h fasted C57BL6 mice) is given as “only modestly increased”. Also, the “induction of ARC p-AKT in response to insulin” value in series [8] (fed C57BL6 mice) is 3-4 fold.
